Data: patent US11103478B2, “Anavex2-73 for the treatment of alzheimer's disease” (ANAVEX LIFE SCIENCES CORP., priority 2017, dated 2021)

Legend:
[1] = system: patients with early signs of Alzheimer's disease; experiment: Single-patient examples of intermittent dosing in early Alzheimer's disease (Examples 1-5); type: in vivo, human
Excerpt: The following examples show uses of ANAVEX2-73 in the treatment of patients with Alzheimer's disease or presenting with the early signs of Alzheimer's disease. The clinical determination that a patient may have Alzheimer's disease or is presenting with early signs of Alzheimer's disease is well known in the art. By way of example, the following references (and all publications cited herein) are incorporated by reference herein in their entireties: Dementia: From Diagnosis to Management—A Functional Approach 1st Edition, Psychology Press (Feb. 17, 2009); Clinician's Guide to Psychological Assessment and Testing: With Forms and Templates for Effective Practice 1st Edition, Springer Publishing Company (Sep. 18, 2012); Neurodegener. Dis. Manag. 5(3), 191-201 (2015); Artif. Intell. Med. 64(1), 59-74 (2015); Clin. Chem. 60(12), 1585-1586 (2014); and Metabolism 64(3 Suppl 1), S47-50 (2014).
A person presents with early signs of Alzheimer's disease. They are orally administered a pharmaceutical composition containing 30 mg ANAVEX2-73 according to an intermittent dosing regimen where each cycle includes daily administration for 10 days (dosing period) followed by 10 days of no administration (resting period). The patient is administered 30 mg ANAVEX2-73 according to the intermittent dosing regimen for 6 months. Their loss of cognitive function stabilizes during that period.
A person presents with signs of early onset Alzheimer's disease. They are orally administered a pharmaceutical composition containing 50 mg ANAVEX2-73 according to an intermittent dosing regimen where each cycle includes daily administration for 10 days (dosing period) followed by 20 days of no administration (resting period). Their loss of cognitive function stabilizes during that period.
A person presents with signs of early onset Alzheimer's disease. They are administered 3 mg of ANAVEX2-73 intravenously according to an intermittent dosing regimen where each cycle includes daily administration for 5 days (dosing period) followed by 20 days of no administration (resting period) for one year. Their loss of cognitive function stabilizes during that period.
A person presents with signs of early onset Alzheimer's disease. They are administered 5 mg of ANAVEX2-73 intravenously according to an intermittent dosing regimen where each cycle includes daily administration for 14 days (dosing period) followed by 7 days of no administration (resting period) for one year. Their loss of cognitive function stabilizes during that period.
A person presents with early signs of Alzheimer's disease. They are orally administered a pharmaceutical composition containing 50 mg ANAVEX2-73 according to an intermittent dosing regimen where each cycle includes daily administration for 14 days (dosing period) followed by 7 days of no administration (resting period). The patient is administered 50 mg ANAVEX2-73 according to the intermittent dosing regimen for 6 months. Their loss of cognitive function is stabilized during that period.

[2] = system: amyloid β25-35 peptide (Aβ25-35) toxicity; settings: cited from earlier work
[3] = system: mild-to-moderate Alzheimer's disease patients; experiment: Phase 2a trial: EEG peak alpha frequency (PAF); type: in vivo, human; settings: 12 patients, day 36
Experimental: The 36-day multicenter randomized clinical trial included both male and female mild-to-moderate Alzheimer's disease patients. ANAVEX2-73 was administered to twelve subjects as an add-on therapy to the donepezil current standard of care. ANAVEX2-73 was administered according to a two-period on-off-on cross-over dosing regimen in which the subjects were administered ANAVEX2-73 for 12 days (1st period) followed by a 12-day wash-out period before being administered ANAVEX2-73 for a second 12-day period (2nd period). Those subjects that were administered ANAVEX2-73 by oral administration during the 1st period were administered ANAVEX2-73 intravenously during the 2nd period, and vice versa. […]
Subjects were tested using a three-stimulus oddball paradigm. […] Electroencephalographic (EEG) activity was recorded from seven electrode sites (Fz, Cz, Pz, F3, P3, F4, and P4) of the international 10-20 system using a COGNISION™ Headset (Neuronetrix). […]
FIG. 8 illustrates electroencephalographic (EEG) peak alpha frequency (PAF) data for twelve patients at baseline and day 36 following the on-off-on ANAVEX2-73 dosing regimen, as compared to a healthy control group. Electroencephalographic (EEG) peak alpha frequency (PAF), measured in Hz, is a distinctive individual “fingerprint” that has been correlated to cognitive performance and reflects a trait or state of cognitive preparedness. […]

[4] = system: muscarinic acetylcholine receptors; settings: believed to bind; cited from earlier work
[5] = Randomized, placebo-controlled single ascending dose Phase 1 study in healthy male volunteers; type: in vivo, human
Experimental: See Poster: A Phase 1 Dose Escalation Study to Investigate Safety, Tolerability, and Pharmacokinetics of ANAVEX2-73 in Healthy Male Subjects, CNS Summit 2014, Boca Raton, Fla., by Ole Voges, Ingo Weigmann, Norman Bitterlich, Christoph Schindler and Christopher Missling. […] Based on the frequency and intensity of […] adverse events (TEAEs) the maximum tolerable dose (MTD) and the minimum intolerable dose (MID) were defined as 55 mg and 60 mg, respectively.

[6] = molecular target: sigma-1 receptor (Homo sapiens, UniProt Q99720); settings: believed to bind; cited from earlier work
Chain of sigma-1 receptor (Q99720 whole entry, species assumed): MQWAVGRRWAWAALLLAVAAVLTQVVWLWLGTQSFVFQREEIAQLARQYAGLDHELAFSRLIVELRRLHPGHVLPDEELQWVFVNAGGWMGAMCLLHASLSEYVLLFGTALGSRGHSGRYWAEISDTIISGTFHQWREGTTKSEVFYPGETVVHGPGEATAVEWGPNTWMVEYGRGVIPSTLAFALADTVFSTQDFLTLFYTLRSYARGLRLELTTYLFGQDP

[7] = system: mild-to-moderate Alzheimer's disease patients; experiment: Phase 2a trial: MMSE and Cogstate scales, safety profile; type: in vivo, human
Experimental: (§1) The 36-day multicenter randomized clinical trial included both male and female mild-to-moderate Alzheimer's disease patients. ANAVEX2-73 was administered to twelve subjects as an add-on therapy to the donepezil current standard of care. ANAVEX2-73 was administered according to a two-period on-off-on cross-over dosing regimen in which the subjects were administered ANAVEX2-73 for 12 days (1st period) followed by a 12-day wash-out period before being administered ANAVEX2-73 for a second 12-day period (2nd period). Those subjects that were administered ANAVEX2-73 by oral administration during the 1st period were administered ANAVEX2-73 intravenously during the 2nd period, and vice versa. About half of the subjects were administered a 30 mg oral dosage form while the other half of subjects were administered a 50 mg oral dosage form. The intravenous dosage was either 3 mg or 5 mg, with about half of the subjects administered 3 mg and the other half administered 5 mg.
The results for the twelve subject on-off-on dosing regimen of ANAVEX2-73, shown in FIGS. 5-9, were achieved without any dose optimization. […] An additional 20 subjects will be studied during the remainder of the Phase 2a clinical trial. Phase 2b clinical trials, involving an additional 26-week extension of daily oral dosage administration of ANAVEX2-73 is on-going.

[8] = system: mild-to-moderate Alzheimer's disease patients; experiment: Phase 2a trial: auditory P300 event related potential (three-stimulus oddball paradigm); type: in vivo, human
Experimental: as §1
Resting electroencephalographic (EEG) activity and event related potentials (EEG/ERP) were used to assess the cognitive effects of ANAVEX2-73 administration. Event related potentials (ERPs) are voltage changes time-locked to some physical or mental occurrence in ongoing electrical brain activity, as recorded by EEG. Event-related potentials (ERPs) provide a sensitive and reliable measure of the cognitive effects associated with early Alzheimer's disease. […] See for example, New Encycl. Neurosci., Oxford Academic Press, p. 13-18 (2009). For example, ERP tests on young presymptomatic individuals who carry mutations in the presenilin-1 and amyloid precursor protein genes show significant changes in ERP patterns years before the onset of behavioral symptoms and the development of Alzheimer's disease. See for example, Neurology 73, 1649-1655 (2009); Neurology 77, 469-475 (2011). […] For instance, ERP markers of cognitive function are increasingly altered in longitudinal studies on individuals with mild cognitive impairment (MCI) and Alzheimer's disease patients. See for example, Clin. Neurophysiol. 122, 1322-1326 (2011); Clin. Neurophysiol. 121, 194-199 (2010). […] See for example, Neurol. Neurochir. Pol. 35 Suppl 3, 37-43 (2001); Clin. Neuropharmacol. 25, 207-215 (2002); Neurosci. Biomed. Eng. 1, 34-39 (2013).
In particular, the auditory P300 component of the ERP has been widely applied in the study of age-related cognitive dysfunction because it is thought to reflect attentional and memory processes. Auditory P300 is a positive deflection occurring at about 300 ms from stimulus onset. It is generated by the activation of multiple neocortical and limbic regions. […]

CN(C)CC1CCOC1(c1ccccc1)c1ccccc1.Cl (stereo not shown) [ANAVEX2-73, tetrahydro-N,N-dimethyl-2,2-diphenyl-3-furanmethanamine hydrochloride]
loss of cognitive function ([1]; Example 1: person, 30 mg oral, 10 days on / 10 days off, 6 months): stabilizes
loss of cognitive function ([1]; Example 2: person, 50 mg oral, 10 days on / 20 days off): stabilizes
loss of cognitive function ([1]; Example 3: person, 3 mg intravenously, 5 days on / 20 days off, one year): stabilizes
loss of cognitive function ([1]; Example 4: person, 5 mg intravenously, 14 days on / 7 days off, one year): stabilizes
loss of cognitive function ([1]; Example 5: person, 50 mg oral, 14 days on / 7 days off, 6 months): is stabilized
hyperphosphorylation of Tau on physiological (AT-8) and pathological (AT-100) epitopes ([2]; in the dose-range tested): attenuated
oxidative stress, caspases induction, cellular loss and learning and memory deficits ([2]; mice one week after i.c.v. injection of oligomeric Aβ25-35): attenuating
Aβ25-35-induced P-Akt decrease and P-GSK-3β increase ([2]; mice, Aβ25-35): blocked
Aβ25-35-induced endogenous Aβ1-42 seeding ([2]; mouse, in vivo): decrease
EEG peak alpha frequency (PAF) vs baseline [3]: higher
affinity for muscarinic acetylcholine receptors [4]: low micromolar range
observed adverse events ([5]; human, in vivo): moderate and reversible dizziness and headache
QT interval and QTcB ([5]; human, in vivo, po): did not reveal any clinically significant changes
blood pressure, resting heart rate, vital signs and 12-lead ECG ([5]; human, in vivo, po): did not show any clinically relevant or dose-dependent changes
pharmacokinetics ([5]; human, in vivo, po): suitable for daily oral dosing
serious adverse events ([5]; human, in vivo, po): No serious adverse events occurred
minimum intolerable dose (MID) ([5]; male, human, in vivo, po): 60 mg
maximum tolerable dose (MTD) ([5]; single oral dose, healthy male volunteers): 55 mg
affinity for sigma-1 receptor [6]: low micromolar range
safety profile during Phase 2a ([7]; Phase 2a trial): consistent with the Phase 1 data
Mini Mental State Examination (MMSE) and Cogstate scale changes ([7]; preliminary, 12 patients): consistent with the observed trend of the cognitive EEG/ERP effect
P300 ERP wave: measured cognitive performance vs baseline ([8]; 12 patients, day 36, on-off-on regimen (30/50 mg oral, 3/5 mg i.v.), add-on to donepezil): improved measured cognitive performance
P300 amplitude, Percentage Increase Over Baseline Data ([8]; 12 patients, day 36 vs baseline, hydrochloride): 38%
P300 amplitude change vs historical donepezil at the 1 month time point ([8]; day 36 (1 month), change from baseline, donepezil data from the literature): about four times higher
percent P300 amplitude change after 1 month vs historical donepezil after 6 months ([8]; day 36 (1 month), donepezil data from the literature): greater
